In US20060141078A1, “Composition comprising a rice protein hydrolysate and an agent for increasing glycosaminoglycan synthesis” (L'OREAL, priority 2004, published 2006):

Test system: adipocytes
Test: Hydrolysis of adipocyte triglycerides: release of non-esterified fatty acids (NEFA) into the medium (lipolysis)
Type: cell-based
Details: for % activity vs Control: untreated control = 100
Procedure: The adipocytes were isolated from an abdominal plasty and then incubated in the presence of collagenase, washed and taken up in test medium.
We then added the adipocyte suspension and the mixtures were incubated at 37° C. The NEFAs were assayed in the fractions of sub-adipocyte medium, after decantation. The assay was performed using an NEFA-C kit according to the manufacturer's instructions.
Two controls (a positive and a negative) of absence of interference of the product with the NEFA assay were performed.

Row | SMILES | NEFA (Example 1, 1 μM) [µM] | % activity vs Control (Example 1, 1 μM) [%] | NEFA (Example 2, 1 μM) [µM] | % activity vs Control (Example 2, 1 μM) [%] | NEFA (Example 1, 1 mM) [µM] | % activity vs Control (Example 1, 1 mM) [%] | NEFA (Example 2, 1 mM) [µM] | % activity vs Control (Example 2, 1 mM) [%]
1 | CC(C)NCC(O)c1ccc(O)c(O)c1 (centres unmarked) [Isoproterenol, isoproterenol] | 472.3 | 600 | 613.3 | 1849 | – | – | – | –
2 | Cn1c(=O)c2[nH]cnc2n(C)c1=O [Theophylline, theophylline] | – | – | – | – | 496.3 | 630 | 626.3 | 1888
